Measured values published in the NIST ThermoML archive (doi:10.1016/j.jct.2014.12.011).

Assay: mn = molality of the nth substance listed, in mol/kg
Settings: 100 kPa, Liquid, Alternating current cell with electrodes

CCCCCCCCCC(=O)[O-].[K+] [potassium decanoate] + O
Settings	electrical conductivity [S/m]
288.15 K, m1 = 0.00932	0.0666
288.15 K, m1 = 0.01855	0.13
288.15 K, m1 = 0.02771	0.19
288.15 K, m1 = 0.03678	0.247
288.15 K, m1 = 0.04578	0.303
288.15 K, m1 = 0.0547	0.358
288.15 K, m1 = 0.06355	0.411
288.15 K, m1 = 0.07232	0.462
288.15 K, m1 = 0.08102	0.511
288.15 K, m1 = 0.08964	0.5603
288.15 K, m1 = 0.09819	0.608
288.15 K, m1 = 0.1067	0.654
288.15 K, m1 = 0.1151	0.698
288.15 K, m1 = 0.1234	0.738
288.15 K, m1 = 0.1317	0.771
288.15 K, m1 = 0.1399	0.8021
288.15 K, m1 = 0.148	0.8314
288.15 K, m1 = 0.1561	0.86
288.15 K, m1 = 0.1641	0.888
288.15 K, m1 = 0.1721	0.915
288.15 K, m1 = 0.1799	0.943
288.15 K, m1 = 0.1878	0.9704
298.15 K, m1 = 0.00998	0.0875
298.15 K, m1 = 0.01987	0.172
298.15 K, m1 = 0.02967	0.251
298.15 K, m1 = 0.03939	0.328
298.15 K, m1 = 0.04902	0.402
298.15 K, m1 = 0.05856	0.474
298.15 K, m1 = 0.06803	0.545
298.15 K, m1 = 0.07741	0.613
298.15 K, m1 = 0.08671	0.679
298.15 K, m1 = 0.09593	0.743
298.15 K, m1 = 0.1051	0.802
298.15 K, m1 = 0.1141	0.858
298.15 K, m1 = 0.1231	0.905
298.15 K, m1 = 0.1321	0.949
298.15 K, m1 = 0.1409	0.99
298.15 K, m1 = 0.1497	1.03
298.15 K, m1 = 0.1583	1.07
298.15 K, m1 = 0.167	1.108
298.15 K, m1 = 0.1755	1.147
298.15 K, m1 = 0.184	1.19
298.15 K, m1 = 0.1924	1.224
298.15 K, m1 = 0.2008	1.26
298.15 K, m1 = 0.209	1.301
308.15 K, m1 = 0.00952	0.101
308.15 K, m1 = 0.01895	0.198
308.15 K, m1 = 0.0283	0.29
308.15 K, m1 = 0.03758	0.379
308.15 K, m1 = 0.04677	0.465
308.15 K, m1 = 0.05588	0.549
308.15 K, m1 = 0.06492	0.631
308.15 K, m1 = 0.07388	0.71
308.15 K, m1 = 0.08277	0.785
308.15 K, m1 = 0.09158	0.8601
308.15 K, m1 = 0.1003	0.931
308.15 K, m1 = 0.109	0.996
308.15 K, m1 = 0.1176	1.05
308.15 K, m1 = 0.1261	1.104
308.15 K, m1 = 0.1346	1.15
308.15 K, m1 = 0.1429	1.201
308.15 K, m1 = 0.1512	1.25
308.15 K, m1 = 0.1595	1.29
308.15 K, m1 = 0.1677	1.342
308.15 K, m1 = 0.1758	1.39
308.15 K, m1 = 0.1838	1.434
308.15 K, m1 = 0.1918	1.48
308.15 K, m1 = 0.1997	1.525
318.15 K, m1 = 0.0099	0.125
318.15 K, m1 = 0.01971	0.243
318.15 K, m1 = 0.02944	0.356
318.15 K, m1 = 0.03908	0.465
318.15 K, m1 = 0.04864	0.571
318.15 K, m1 = 0.05811	0.673
318.15 K, m1 = 0.0675	0.771
318.15 K, m1 = 0.07682	0.867
318.15 K, m1 = 0.08605	0.962
318.15 K, m1 = 0.0952	1.05
318.15 K, m1 = 0.1043	1.135
318.15 K, m1 = 0.1133	1.21
318.15 K, m1 = 0.1222	1.28
318.15 K, m1 = 0.131	1.342
318.15 K, m1 = 0.1398	1.404
318.15 K, m1 = 0.1485	1.46
318.15 K, m1 = 0.1571	1.524
318.15 K, m1 = 0.1657	1.58
318.15 K, m1 = 0.1742	1.641
318.15 K, m1 = 0.1826	1.7
318.15 K, m1 = 0.1909	1.76
318.15 K, m1 = 0.1992	1.815
318.15 K, m1 = 0.2074	1.87
328.15 K, m1 = 0.00972	0.143
328.15 K, m1 = 0.01937	0.279
328.15 K, m1 = 0.02892	0.408
328.15 K, m1 = 0.0384	0.533
328.15 K, m1 = 0.0478	0.654
328.15 K, m1 = 0.05712	0.769
328.15 K, m1 = 0.06636	0.883
328.15 K, m1 = 0.07552	0.994
328.15 K, m1 = 0.08461	1.103
328.15 K, m1 = 0.09362	1.207
328.15 K, m1 = 0.1026	1.305
328.15 K, m1 = 0.1114	1.4
328.15 K, m1 = 0.1202	1.48
328.15 K, m1 = 0.1289	1.55
328.15 K, m1 = 0.1376	1.627
328.15 K, m1 = 0.1462	1.7
328.15 K, m1 = 0.1547	1.77
328.15 K, m1 = 0.1631	1.836
328.15 K, m1 = 0.1715	1.904
328.15 K, m1 = 0.1798	1.97
328.15 K, m1 = 0.188	2.038
328.15 K, m1 = 0.1962	2.106
328.15 K, m1 = 0.2043	2.17

CCCCCCCCCC(=O)[O-].[Na+] [sodium decanoate] + O
electrical conductivity [S/m]
Settings	278.15 K	288.15 K	298.15 K	308.15 K	318.15 K	328.15 K
m1 = 0.01638	0.0626	0.083	0.106	0.131	0.157	0.184
m1 = 0.03189	0.116	0.155	0.198	0.244	0.292	0.344
m1 = 0.04823	0.17	0.226	0.288	0.356	0.428	0.504
m1 = 0.06109	0.21	0.279	0.357	0.441	0.53	0.625
m1 = 0.07519	0.2524	0.336	0.429	0.531	0.639	0.753
m1 = 0.09179	0.3003	0.399	0.5112	0.632	0.7605	0.896
m1 = 0.1079	0.344	0.459	0.584	0.719	0.865	1.021
m1 = 0.1249	0.388	0.5125	0.647	0.795	0.958	1.135
m1 = 0.1434	0.429	0.559	0.705	0.869	1.05	1.25
m1 = 0.1608	0.46	0.599	0.758	0.936	1.134	1.35
m1 = 0.1798	0.489	0.6405	0.8135	1.008	1.224	1.46
m1 = 0.1991	0.519	0.6831	0.8715	1.08	1.316	1.57
m1 = 0.2177	0.547	0.724	0.927	1.15	1.405	1.68
m1 = 0.2366	0.576	0.766	0.984	1.228	1.5	1.78
m1 = 0.2557	0.605	0.809	1.043	1.303	1.59	1.89
